Measured values: ChEMBL document CHEMBL4507279, “Data for DCP probe BI-9627” (2021)

Tests used:
[1] = target: Serine/threonine-protein kinase ICK (Homo sapiens) (UniProt Q9UPZ9); details: Compound concentration 1000.0 nM
[2] = test system: Epidermal growth factor receptor (Homo sapiens), P00533 [UNDEFINED MUTATION]; details: Compound concentration 1000.0 nM
[3] = test system: Tyrosine-protein kinase ABL1 (Homo sapiens), P00519 [Q252H]; details: Compound concentration 1000.0 nM
[4] = target: Cyclin-dependent kinase 4 (Homo sapiens) (UniProt P11802); details: Compound concentration 1000.0 nM
[5] = target: Serine/threonine-protein kinase Nek3 (Homo sapiens) (UniProt P51956); details: Compound concentration 1000.0 nM
[6] = target: Serine/threonine-protein kinase BRSK1 (Homo sapiens) (UniProt Q8TDC3); details: Compound concentration 1000.0 nM
[7] = target: Interleukin-1 receptor-associated kinase 4 (Homo sapiens) (UniProt Q9NWZ3); details: Compound concentration 1000.0 nM
Interleukin-1 receptor-associated kinase 4 (Homo sapiens), sequence (Q9NWZ3 whole entry): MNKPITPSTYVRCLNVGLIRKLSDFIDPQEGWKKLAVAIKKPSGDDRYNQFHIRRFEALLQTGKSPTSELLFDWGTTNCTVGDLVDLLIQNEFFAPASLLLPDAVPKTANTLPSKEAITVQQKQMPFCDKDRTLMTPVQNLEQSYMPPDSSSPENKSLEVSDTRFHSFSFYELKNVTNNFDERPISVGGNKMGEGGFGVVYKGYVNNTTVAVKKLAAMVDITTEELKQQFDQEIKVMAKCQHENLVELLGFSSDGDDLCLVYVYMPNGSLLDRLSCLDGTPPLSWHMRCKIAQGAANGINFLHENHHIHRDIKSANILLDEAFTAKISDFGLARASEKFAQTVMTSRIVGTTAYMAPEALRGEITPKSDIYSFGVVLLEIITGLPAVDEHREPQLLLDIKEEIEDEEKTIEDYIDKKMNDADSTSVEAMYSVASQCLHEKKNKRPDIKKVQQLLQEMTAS

[8] = target: Serine/threonine-protein kinase RIO2 (Homo sapiens) (UniProt Q9BVS4); details: Compound concentration 1000.0 nM
Serine/threonine-protein kinase RIO2 (Homo sapiens), sequence (Q9BVS4 whole entry, looked up, the tested form may be a part): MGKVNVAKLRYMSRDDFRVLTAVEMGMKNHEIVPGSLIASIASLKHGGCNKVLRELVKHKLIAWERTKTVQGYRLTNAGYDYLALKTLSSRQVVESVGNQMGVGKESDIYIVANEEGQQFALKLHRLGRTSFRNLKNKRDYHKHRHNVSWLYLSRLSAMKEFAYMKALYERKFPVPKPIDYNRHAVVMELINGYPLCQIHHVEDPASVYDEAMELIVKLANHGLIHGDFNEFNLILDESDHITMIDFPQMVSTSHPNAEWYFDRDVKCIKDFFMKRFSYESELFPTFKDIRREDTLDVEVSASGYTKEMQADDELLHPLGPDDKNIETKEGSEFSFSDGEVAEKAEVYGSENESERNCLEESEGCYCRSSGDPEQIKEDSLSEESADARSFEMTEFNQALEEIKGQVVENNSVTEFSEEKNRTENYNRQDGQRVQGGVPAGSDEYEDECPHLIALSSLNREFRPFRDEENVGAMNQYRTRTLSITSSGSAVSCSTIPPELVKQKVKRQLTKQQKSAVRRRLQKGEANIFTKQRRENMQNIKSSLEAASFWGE

[9] = target: Discoidin domain-containing receptor 2 (Homo sapiens) (UniProt Q16832); details: Compound concentration 1000.0 nM
[10] = target: Hepatocyte growth factor receptor (Homo sapiens) (UniProt P08581); details: Compound concentration 1000.0 nM
[11] = target: Mitogen-activated protein kinase 9 (Homo sapiens) (UniProt P45984); details: Compound concentration 1000.0 nM
[12] = target: Casein kinase II subunit alpha' (Homo sapiens) (UniProt P19784); details: Compound concentration 1000.0 nM
[13] = target: Activin receptor type-1 (Homo sapiens) (UniProt Q04771); details: Compound concentration 1000.0 nM
[14] = target: Serine/threonine-protein kinase mTOR (Homo sapiens) (UniProt P42345); details: Compound concentration 1000.0 nM
[15] = target: Tyrosine-protein kinase Yes (Homo sapiens) (UniProt P07947); details: Compound concentration 1000.0 nM
Tyrosine-protein kinase Yes (Homo sapiens), sequence (P07947 2-543 limits assumed): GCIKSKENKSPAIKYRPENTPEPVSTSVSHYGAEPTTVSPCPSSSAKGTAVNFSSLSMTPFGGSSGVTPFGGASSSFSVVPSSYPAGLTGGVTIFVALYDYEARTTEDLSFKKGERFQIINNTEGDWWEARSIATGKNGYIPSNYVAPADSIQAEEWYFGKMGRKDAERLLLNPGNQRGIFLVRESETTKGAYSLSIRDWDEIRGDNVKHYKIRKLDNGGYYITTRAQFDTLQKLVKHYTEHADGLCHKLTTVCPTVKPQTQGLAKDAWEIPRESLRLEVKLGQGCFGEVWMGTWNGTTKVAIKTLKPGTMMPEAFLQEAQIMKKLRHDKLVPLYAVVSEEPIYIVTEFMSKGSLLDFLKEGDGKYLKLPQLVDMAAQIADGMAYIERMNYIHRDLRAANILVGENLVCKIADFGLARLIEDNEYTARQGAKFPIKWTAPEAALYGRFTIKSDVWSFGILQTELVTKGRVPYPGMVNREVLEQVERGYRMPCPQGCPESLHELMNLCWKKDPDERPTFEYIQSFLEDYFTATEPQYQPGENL

[16] = target: Serine/threonine-protein kinase LATS2 (Homo sapiens) (UniProt Q9NRM7); details: Compound concentration 1000.0 nM
[17] = test system: Receptor-type tyrosine-protein kinase FLT3 (Homo sapiens), P36888 [K663Q]; details: Compound concentration 1000.0 nM
[18] = test system: ALK tyrosine kinase receptor (Homo sapiens), Q9UM73 [L1196M]; details: Compound concentration 1000.0 nM
[19] = target: Serine/threonine-protein kinase Sgk3 (Homo sapiens) (UniProt Q96BR1); details: Compound concentration 1000.0 nM
[20] = target: Serine/threonine-protein kinase 24 (Homo sapiens) (UniProt Q9Y6E0); details: Compound concentration 1000.0 nM
[21] = target: Phosphatidylinositol 4-kinase beta (Homo sapiens) (UniProt Q9UBF8); details: Compound concentration 1000.0 nM
Phosphatidylinositol 4-kinase beta (Homo sapiens), sequence (Q9UBF8 2-816 limits assumed): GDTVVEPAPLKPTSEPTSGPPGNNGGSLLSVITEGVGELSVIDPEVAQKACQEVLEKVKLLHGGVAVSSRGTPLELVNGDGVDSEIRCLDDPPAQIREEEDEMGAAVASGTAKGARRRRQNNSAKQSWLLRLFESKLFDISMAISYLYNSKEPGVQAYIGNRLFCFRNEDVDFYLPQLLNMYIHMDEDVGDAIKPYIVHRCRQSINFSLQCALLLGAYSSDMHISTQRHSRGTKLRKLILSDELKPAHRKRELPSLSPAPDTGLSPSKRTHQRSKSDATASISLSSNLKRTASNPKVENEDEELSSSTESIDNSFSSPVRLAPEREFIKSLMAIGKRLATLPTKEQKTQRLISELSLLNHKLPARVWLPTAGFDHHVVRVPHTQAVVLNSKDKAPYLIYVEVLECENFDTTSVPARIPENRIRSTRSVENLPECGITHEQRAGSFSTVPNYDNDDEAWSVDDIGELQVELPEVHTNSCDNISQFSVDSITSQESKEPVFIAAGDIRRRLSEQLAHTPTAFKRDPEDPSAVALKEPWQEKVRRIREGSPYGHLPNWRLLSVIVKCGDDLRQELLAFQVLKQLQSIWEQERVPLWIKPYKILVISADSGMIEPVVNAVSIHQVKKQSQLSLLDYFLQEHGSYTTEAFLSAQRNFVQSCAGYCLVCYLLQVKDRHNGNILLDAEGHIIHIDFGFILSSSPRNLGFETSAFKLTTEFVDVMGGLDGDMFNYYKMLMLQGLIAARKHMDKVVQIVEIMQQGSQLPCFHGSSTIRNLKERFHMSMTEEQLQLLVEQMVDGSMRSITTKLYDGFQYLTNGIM

[22] = target: Phosphatidylinositol 4,5-bisphosphate 3-kinase catalytic subunit gamma isoform (Homo sapiens) (UniProt P48736); details: Compound concentration 1000.0 nM
[23] = target: Cyclin-dependent kinase 2 homolog (Plasmodium falciparum (isolate 3D7)) (UniProt P61075); details: Compound concentration 1000.0 nM
Cyclin-dependent kinase 2 homolog (Plasmodium falciparum (isolate 3D7)), sequence (P61075 whole entry): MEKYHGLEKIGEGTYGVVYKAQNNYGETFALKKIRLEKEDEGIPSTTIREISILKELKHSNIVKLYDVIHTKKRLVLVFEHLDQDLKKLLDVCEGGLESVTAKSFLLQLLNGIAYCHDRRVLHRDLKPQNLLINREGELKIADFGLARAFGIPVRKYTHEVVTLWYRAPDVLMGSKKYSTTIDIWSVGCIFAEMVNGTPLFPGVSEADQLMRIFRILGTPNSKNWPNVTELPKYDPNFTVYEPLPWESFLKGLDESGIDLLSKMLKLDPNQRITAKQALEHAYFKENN

[24] = target: Mitogen-activated protein kinase kinase kinase kinase 5 (Homo sapiens) (UniProt Q9Y4K4); details: Compound concentration 1000.0 nM
[25] = target: Cyclin-G-associated kinase (Homo sapiens) (UniProt O14976); details: Compound concentration 1000.0 nM
[26] = target: Tyrosine-protein kinase JAK1 (Homo sapiens) (UniProt P23458); details: Compound concentration 1000.0 nM
[27] = target: Bone morphogenetic protein receptor type-2 (Homo sapiens) (UniProt Q13873); details: Compound concentration 1000.0 nM
Bone morphogenetic protein receptor type-2 (Homo sapiens), sequence (Q13873 whole entry): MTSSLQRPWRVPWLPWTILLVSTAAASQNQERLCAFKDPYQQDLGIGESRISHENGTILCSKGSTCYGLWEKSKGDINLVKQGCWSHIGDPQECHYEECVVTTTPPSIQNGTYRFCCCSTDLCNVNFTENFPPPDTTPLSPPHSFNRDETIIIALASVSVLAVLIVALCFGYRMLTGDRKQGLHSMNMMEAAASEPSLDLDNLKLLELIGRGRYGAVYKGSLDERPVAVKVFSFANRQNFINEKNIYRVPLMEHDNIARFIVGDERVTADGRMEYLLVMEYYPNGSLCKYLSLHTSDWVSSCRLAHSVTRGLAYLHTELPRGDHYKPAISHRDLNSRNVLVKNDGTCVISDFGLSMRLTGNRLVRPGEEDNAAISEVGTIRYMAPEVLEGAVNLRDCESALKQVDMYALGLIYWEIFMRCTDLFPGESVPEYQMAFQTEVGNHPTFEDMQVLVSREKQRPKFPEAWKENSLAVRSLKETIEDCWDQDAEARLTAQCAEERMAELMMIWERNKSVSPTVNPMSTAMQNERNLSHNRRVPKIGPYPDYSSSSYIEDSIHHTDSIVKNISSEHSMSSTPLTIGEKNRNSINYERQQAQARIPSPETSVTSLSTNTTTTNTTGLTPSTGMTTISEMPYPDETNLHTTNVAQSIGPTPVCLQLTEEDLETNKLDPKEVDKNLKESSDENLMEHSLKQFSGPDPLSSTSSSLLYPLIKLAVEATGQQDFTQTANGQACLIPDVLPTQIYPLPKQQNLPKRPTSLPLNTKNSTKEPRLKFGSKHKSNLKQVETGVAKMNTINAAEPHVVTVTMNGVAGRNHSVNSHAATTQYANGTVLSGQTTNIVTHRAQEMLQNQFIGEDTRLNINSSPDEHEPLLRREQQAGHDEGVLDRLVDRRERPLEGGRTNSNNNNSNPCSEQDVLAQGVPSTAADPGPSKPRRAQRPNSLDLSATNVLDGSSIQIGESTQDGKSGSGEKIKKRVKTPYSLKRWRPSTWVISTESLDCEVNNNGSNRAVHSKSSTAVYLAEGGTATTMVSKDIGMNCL

[28] = target: Ephrin type-A receptor 7 (Homo sapiens) (UniProt Q15375); details: Compound concentration 1000.0 nM
[29] = test system: Tyrosine-protein kinase ABL1 (Homo sapiens), P00519 [M351T]; details: Compound concentration 1000.0 nM
[30] = target: Mitogen-activated protein kinase 8 (Homo sapiens) (UniProt P45983); details: Compound concentration 1000.0 nM
[31] = target: Serine/threonine-protein kinase PAK 3 (Homo sapiens) (UniProt O75914); details: Compound concentration 1000.0 nM
Serine/threonine-protein kinase PAK 3 (Homo sapiens), sequence (O75914 whole entry, looked up): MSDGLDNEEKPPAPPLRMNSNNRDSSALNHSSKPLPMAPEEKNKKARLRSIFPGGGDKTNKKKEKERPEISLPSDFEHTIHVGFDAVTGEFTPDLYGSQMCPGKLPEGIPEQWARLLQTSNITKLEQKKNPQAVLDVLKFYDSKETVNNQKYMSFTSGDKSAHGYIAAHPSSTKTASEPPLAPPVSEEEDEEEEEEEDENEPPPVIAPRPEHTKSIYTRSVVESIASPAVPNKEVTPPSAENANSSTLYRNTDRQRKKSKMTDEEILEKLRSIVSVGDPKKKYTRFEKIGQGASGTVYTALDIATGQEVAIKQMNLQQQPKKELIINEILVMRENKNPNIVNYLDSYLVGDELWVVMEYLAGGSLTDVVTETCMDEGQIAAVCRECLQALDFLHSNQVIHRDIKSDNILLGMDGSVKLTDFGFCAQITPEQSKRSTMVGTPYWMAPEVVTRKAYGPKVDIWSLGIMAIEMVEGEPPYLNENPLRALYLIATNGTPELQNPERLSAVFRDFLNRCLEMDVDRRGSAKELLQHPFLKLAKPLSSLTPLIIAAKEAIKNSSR

[32] = target: Serine/threonine-protein kinase 33 (Homo sapiens) (UniProt Q9BYT3); details: Compound concentration 1000.0 nM
[33] = target: Phosphatidylinositol 4,5-bisphosphate 3-kinase catalytic subunit alpha isoform (Homo sapiens) (UniProt P42336); details: Compound concentration 1000.0 nM
[34] = target: Ankyrin repeat and protein kinase domain-containing protein 1 (Homo sapiens) (UniProt Q8NFD2); details: Compound concentration 1000.0 nM
Ankyrin repeat and protein kinase domain-containing protein 1 (Homo sapiens), sequence (Q8NFD2 whole entry, the tested form may be a part): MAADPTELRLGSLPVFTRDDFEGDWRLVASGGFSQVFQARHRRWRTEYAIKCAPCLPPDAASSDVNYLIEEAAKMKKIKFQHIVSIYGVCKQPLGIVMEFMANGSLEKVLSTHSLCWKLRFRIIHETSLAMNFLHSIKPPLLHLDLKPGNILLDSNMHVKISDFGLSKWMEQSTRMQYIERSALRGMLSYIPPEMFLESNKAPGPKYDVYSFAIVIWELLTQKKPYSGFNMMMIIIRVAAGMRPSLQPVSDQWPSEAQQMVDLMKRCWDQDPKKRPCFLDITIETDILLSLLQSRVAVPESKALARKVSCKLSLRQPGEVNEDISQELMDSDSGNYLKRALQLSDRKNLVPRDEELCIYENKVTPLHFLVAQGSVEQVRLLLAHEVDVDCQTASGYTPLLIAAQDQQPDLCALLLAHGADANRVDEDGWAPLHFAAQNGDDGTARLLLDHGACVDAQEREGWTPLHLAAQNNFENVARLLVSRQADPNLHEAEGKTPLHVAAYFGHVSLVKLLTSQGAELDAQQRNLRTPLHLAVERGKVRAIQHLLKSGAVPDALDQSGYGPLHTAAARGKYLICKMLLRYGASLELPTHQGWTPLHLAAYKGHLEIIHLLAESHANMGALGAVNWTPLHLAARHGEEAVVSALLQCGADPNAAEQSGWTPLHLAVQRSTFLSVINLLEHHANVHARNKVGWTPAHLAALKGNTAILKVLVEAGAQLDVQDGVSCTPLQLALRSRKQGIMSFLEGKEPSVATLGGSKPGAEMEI

[35] = target: T1, 5-hydroxytryptamine receptor 3A (Homo sapiens) (UniProt P46098); details: Compound concentration 10.0 uM
T1 sequence (whole entry): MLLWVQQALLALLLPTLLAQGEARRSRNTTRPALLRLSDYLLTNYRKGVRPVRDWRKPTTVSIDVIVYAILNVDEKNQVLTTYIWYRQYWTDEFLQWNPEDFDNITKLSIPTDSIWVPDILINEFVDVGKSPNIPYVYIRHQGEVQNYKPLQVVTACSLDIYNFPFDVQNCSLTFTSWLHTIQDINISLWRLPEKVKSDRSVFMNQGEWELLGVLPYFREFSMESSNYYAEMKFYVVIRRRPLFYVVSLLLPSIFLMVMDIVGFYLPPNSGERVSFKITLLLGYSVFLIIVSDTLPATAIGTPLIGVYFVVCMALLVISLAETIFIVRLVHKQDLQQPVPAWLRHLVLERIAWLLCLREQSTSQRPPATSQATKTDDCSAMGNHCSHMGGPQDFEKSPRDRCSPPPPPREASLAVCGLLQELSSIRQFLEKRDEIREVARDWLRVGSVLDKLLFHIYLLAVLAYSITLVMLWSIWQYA

[36] = test system: Epidermal growth factor receptor (Homo sapiens), P00533 [T790M]; details: Compound concentration 1000.0 nM
[37] = target: Serine/threonine-protein kinase LATS1 (Homo sapiens) (UniProt O95835); details: Compound concentration 1000.0 nM
[38] = target: NUAK family SNF1-like kinase 1 (Homo sapiens) (UniProt O60285); details: Compound concentration 1000.0 nM

CC(=O)N1CCC(c2ccc(C(=O)NC3=NCCN3)cc2C(F)(F)F)CC1 [BI 0054]
inactive: residual activity [1] 88% | residual activity [2] 100% | residual activity [3] 88% | residual activity [4] 98% | residual activity [5] 63% | residual activity [6] 100% | residual activity [7] 89% | residual activity [8] 93% | residual activity [9] 96% | residual activity [10] 100% | residual activity [11] 92% | residual activity [12] 100% | residual activity [13] 100% | residual activity [14] 67% | residual activity [15] 100% | residual activity [16] 91% | residual activity [17] 100% | residual activity [18] 70% | residual activity [19] 82% | residual activity [20] 97% | residual activity [21] 91% | residual activity [22] 100% | residual activity [23] 100% | residual activity [24] 100% | residual activity [25] 97% | residual activity [26] 100% | residual activity [27] 100% | residual activity [28] 99% | residual activity [29] 100% | residual activity [30] 84% | residual activity [31] 100% | residual activity [32] 100% | residual activity [33] 100% | residual activity [34] 100% | inhibition [35] -4.49% | residual activity [36] 100% | residual activity [37] 93% | residual activity [38] 98%

CC(=O)N1CCC(c2ccc(C(=O)NC(=N)N)cc2C(F)(F)F)CC1 [BI 9627]
inactive: residual activity [1] 94% | residual activity [2] 90% | residual activity [3] 79% | residual activity [4] 100% | residual activity [5] 79% | residual activity [6] 87% | residual activity [7] 100% | residual activity [8] 100% | residual activity [9] 100% | residual activity [10] 100% | residual activity [11] 95% | residual activity [12] 100% | residual activity [13] 100% | residual activity [14] 100% | residual activity [15] 98% | residual activity [16] 100% | residual activity [17] 100% | residual activity [18] 96% | residual activity [19] 100% | residual activity [20] 100% | residual activity [21] 100% | residual activity [22] 100% | residual activity [23] 100% | residual activity [24] 100% | residual activity [25] 100% | residual activity [26] 100% | residual activity [27] 100% | residual activity [28] 100% | residual activity [29] 100% | residual activity [30] 73% | residual activity [31] 84% | residual activity [32] 100% | residual activity [33] 100% | residual activity [34] 100% | inhibition [35] -6.68% | residual activity [36] 100% | residual activity [37] 72% | residual activity [38] 100%
